Experiment [1] relates to Staphylococcus aureus MRSA ATCC 43300. Kind of experiment: MIC assay, S. aureus MRSA ATCC 43300. The class given is cell-based. The following applies: 24 h incubation, visual reading. The procedure, abridged:
(§1)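 Overnight MHB cultures at 37° C were diluted 40-fold and grown 2-3 hrs to mid-log, then added at 5×10e5 CFU/mL to twofold compound dilutions (8 to 0.003 μg/ml). Plates were incubated 24 h at 37° C and MIC scored by eye.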

Experiment [2] relates to Streptococcus pneumoniae MDR ATCC 700677. Kind of experiment: MIC assay, S. pneumoniae MDR ATCC 700677. The experiment is classed as cell-based. To be noted: 24 h incubation, visual reading. The gist of the method: as §1
The subject of experiment [3] is Enterococcus faecium MDR Van A ATCC 51559. Description: MIC assay, E. faecium MDR Van A ATCC 51559. The experiment is classed as cell-based. To be noted: 24 h incubation, visual reading. The gist of the method: as §1
The subject of a further experiment is MRSA (Strain ATCC 43300). Description: Murine thigh infection model (MRSA). The following applies: neutropenic CD1 mice. The class given is in vivo, Staphylococcus aureus.
Setting [4] is: single subcutaneous dose 10 mg/kg.
The mark [5] stands for this setting: single subcutaneous dose 50 mg/kg.

In the case of `CNC(CC(C)C)C(=O)NC1C(=O)NC(CC(N)=O)C(=O)NC2C(=O)NC3C(=O)NC(C(=O)NC(C(=O)NCCCNC(=O)C(CCCCN)NC(=O)C(CCCCN)NC(=O)c4ccc(Cl)cc4)c4cc(O)cc(O)c4-c4cc3ccc4O)C(O)c3ccc(c(Cl)c3)Oc3cc2cc(c3OC2OC(CO)C(O)C(O)C2OC2CC(C)(N)C(O)C(C)O2)Oc2ccc(cc2Cl)C1O` (stereo not drawn) [MCC_005362], the “Minimum Inhibitory Concentration (MIC) Staph. aureus ATCC43300” value in experiment [1] was “xxx (xxx = 0.1-<1)”. The “Minimum Inhibitory Concentration (MIC) S. pneumoniae ATCC 700677” value in experiment [2] is given as “xxx (xxx = 0.1-<1)”. Also, the “Minimum Inhibitory Concentration (MIC) E. faecium ATCC51559” value in experiment [3] was “xx (xx = 1-4)”. The “Average Reduction log Δcfu MRSA/thigh after 26 h” value with MRSA (Strain ATCC 43300) (setting [4]) is recorded as “x (x = 0-2)”; in the experiment with MRSA (Strain ATCC 43300) (setting [5]), “xxx (xxx = 4-6)”.
Turning to `CCCCCCCCC(=O)N[C@@H](CCCCN)C(=O)N[C@@H](CCCCN)C(=O)N[C@@H](CCCCNC(=O)[C@H]1NC(=O)[C@H]2NC(=O)[C@H](NC(=O)[C@@H]3NC(=O)[C@H](CC(N)=O)NC(=O)[C@H](NC(=O)[C@@H](CC(C)C)NC)[C@H](O)c4ccc(c(Cl)c4)Oc4cc3cc(c4O[C@@H]3O[C@H](CO)[C@@H](O)[C@H](O)[C@H]3O[C@H]3C[C@](C)(N)[C@H](O)[C@H](C)O3)Oc3ccc(cc3Cl)[C@H]2O)c2ccc(O)c(c2)-c2c(O)cc(O)cc21)C(=O)O` [MCC_005226], the “Minimum Inhibitory Concentration (MIC) Staph. aureus ATCC43300” value in experiment [1] was “xxx (xxx = 0.1-<1)”. Also, the “Minimum Inhibitory Concentration (MIC) S. pneumoniae ATCC 700677” value in experiment [2] is reported as “xxx (xxx = 0.1-<1)”. Also, the “Minimum Inhibitory Concentration (MIC) E. faecium ATCC51559” value in experiment [3] was “x (x = >4)”. In addition, in the experiment with MRSA (Strain ATCC 43300) (setting [4]), the “Average Reduction log Δcfu MRSA/thigh after 26 h” value is recorded as “x (x = 0-2)”.
Consider `CCCCCCCCCC(=O)N[C@@H](CCCCN)C(=O)N[C@@H](CCCCN)C(=O)NCCCNC(=O)[C@H]1NC(=O)[C@H]2NC(=O)[C@H](NC(=O)[C@@H]3NC(=O)[C@H](CC(N)=O)NC(=O)[C@H](NC(=O)[C@@H](CC(C)C)NC)[C@H](O)c4ccc(c(Cl)c4)Oc4cc3cc(c4O[C@@H]3O[C@H](CO)[C@@H](O)[C@H](O)[C@H]3O[C@H]3C[C@](C)(N)[C@H](O)[C@H](C)O3)Oc3ccc(cc3Cl)[C@H]2O)c2ccc(O)c(c2)-c2c(O)cc(O)cc21` [MCC_005084], for which, in experiment [1], the “Minimum Inhibitory Concentration (MIC) Staph. aureus ATCC43300” value is given as “xxxx (xxxx = 0.01-<0.1)”. The “Minimum Inhibitory Concentration (MIC) S. pneumoniae ATCC 700677” value in experiment [2] is “xxxx (xxxx = 0.01-<0.1)”. Moreover, the “Minimum Inhibitory Concentration (MIC) E. faecium ATCC51559” value in experiment [3] is “xx (xx = 1-4)”. In the experiment on MRSA (Strain ATCC 43300) (setting [4]), the “Average Reduction log Δcfu MRSA/thigh after 26 h” value is given as “xxx (xxx = 4-6)”.
On to `CNC(CC(C)C)C(=O)NC1C(=O)NC(CC(N)=O)C(=O)NC2C(=O)NC3C(=O)NC(C(=O)NC(C(=O)NCCCNC(=O)C(CCCCN)NC(=O)C(CCCCN)NC(=O)CCCOc4ccccc4)c4cc(O)cc(O)c4-c4cc3ccc4O)C(O)c3ccc(c(Cl)c3)Oc3cc2cc(c3OC2OC(CO)C(O)C(O)C2OC2CC(C)(N)C(O)C(C)O2)Oc2ccc(cc2Cl)C1O` (stereo not drawn) [MCC_005365], for which the “Minimum Inhibitory Concentration (MIC) Staph. aureus ATCC43300” value in experiment [1] is recorded as “xxx (xxx = 0.1-<1)”. Also, the “Minimum Inhibitory Concentration (MIC) S. pneumoniae ATCC 700677” value in experiment [2] is reported as “xxx (xxx = 0.1-<1)”. Moreover, the “Minimum Inhibitory Concentration (MIC) E. faecium ATCC51559” value in experiment [3] is reported as “x (x = >4)”. The “Average Reduction log Δcfu MRSA/thigh after 26 h” value in the experiment on MRSA (Strain ATCC 43300) (setting [5]) is reported as “xx (xx = 2-4)”.
As for `CCCCCCCCCC(=O)N[C@@H](CCCCN)C(=O)N[C@@H](CCCCN)C(=O)NCCNC(=O)[C@H]1NC(=O)[C@H]2NC(=O)[C@H](NC(=O)[C@@H]3NC(=O)[C@H](CC(N)=O)NC(=O)[C@H](NC(=O)[C@@H](CC(C)C)NC)[C@H](O)c4ccc(c(Cl)c4)Oc4cc3cc(c4O[C@@H]3O[C@H](CO)[C@@H](O)[C@H](O)[C@H]3O[C@H]3C[C@](C)(N)[C@H](O)[C@H](C)O3)Oc3ccc(cc3Cl)[C@H]2O)c2ccc(O)c(c2)-c2c(O)cc(O)cc21` [MCC_005166], the “Minimum Inhibitory Concentration (MIC) Staph. aureus ATCC43300” value in experiment [1] is recorded as “xxxx (xxxx = 0.01-<0.1)”. In addition, the “Minimum Inhibitory Concentration (MIC) S. pneumoniae ATCC 700677” value in experiment [2] is reported as “xxxx (xxxx = 0.01-<0.1)”. Further, the “Minimum Inhibitory Concentration (MIC) E. faecium ATCC51559” value in experiment [3] was “x (x = >4)”. Further, in the experiment on MRSA (Strain ATCC 43300) (setting [4]), the “Average Reduction log Δcfu MRSA/thigh after 26 h” value was “xxx (xxx = 4-6)”.
